Assay results taken from patent publication US20240058450A1, “BCL-XL Inhibitory Compounds Having Low Cell Permeability and Antibody Drug Conjugates Including the Same” (AbbVie Inc., priority 2014, published 2024).
Where two headings read alike, the source gives them in different places.

Columns and labels:
Bcl-xL = Bcl-xL (Homo sapiens, UniProt Q07817); experiment: Time Resolved-Fluorescence Resonance Energy Transfer (TR-FRET) binding assay, competition with probe F-Bak
Method: Tb-anti-GST antibody was purchased from Invitrogen (Catalog No. PV4216).
For the assay, test compounds were serially diluted in DMSO starting at 50 μM (2× starting concentration; 10% DMSO) and 10 μL transferred into a 384-well plate. 10 μL of a protein/probe/antibody mix was then added to each well at final concentrations listed below:
The samples were then mixed on a shaker for 1 minute and incubated for an additional 2 hours at room temperature. For each assay plate, a probe/antibody and protein/antibody/probe mixture were included as a negative and a positive control, respectively. Fluorescence was measured on the Envision (Perkin Elmer) using a 340/35 nm excitation filter and 520/525 (F-Bak) and 495/510 nm (Tb-labeled anti-his antibody) emission filters. Dissociation constants (Ki) were determined using Wang's equation (Wang, 1995, FEBS Lett. 360:111-114). The TR-FRET assay can be performed in the presence of varying concentrations of human serum (HS) or fetal bovine serum (FBS). Compounds were tested both without HS and in the presence of 1% HS.

[1] = tested on: Molt-4 human acute lymphoblastic leukemia cells; experiment: Molt-4 cell viability assay (CellTiter-Glo, 48 hours, 10% HS); assay type: cell-based; conditions: Homo sapiens, MOLT-4, 48 h, non-permeabilized cells
Method: The ability of Bcl-xL inhibitors that are able to traverse cell membranes to inhibit Bcl-xL can be determined in cell-based killing assays using a variety of cell lines and mouse tumor models. For example, their activity on cell viability can be assessed on a panel of cultured tumorigenic and non-tumorigenic cell lines, as well as primary mouse or human cell populations.
In one exemplary set of conditions, Molt-4 (ATCC, Manassas, VA) human acute lymphoblastic leukemia cells were plated 12,500 cells per well in 384-well tissue culture plates (Corning, Corning, NY) in a total volume of 25 μL tissue culture medium supplemented with 10% human serum (Sigma-Aldrich, St. Louis, MO) and treated with a 3-fold serial dilution of the compounds of interest from 10 μM to 0.0005 μM. Each concentration was tested in duplicate at least 3 separate times. The number of viable cells following 48 hours of compound treatment was determined using the CellTiter-Glo®, Luminescent Cell Viability Assay according to the manufacturer's recommendations (Promega Corp., Madison, WI). Compounds were tested in the presence of 10% HS.

[2] = in the presence of 1% HS, read-out: Bcl-xL Binding Ki (nM, 1% HS)
[3] = without HS, read-out: Bcl-xL Binding Ki

Sequence of Bcl-xL (Q07817 whole entry): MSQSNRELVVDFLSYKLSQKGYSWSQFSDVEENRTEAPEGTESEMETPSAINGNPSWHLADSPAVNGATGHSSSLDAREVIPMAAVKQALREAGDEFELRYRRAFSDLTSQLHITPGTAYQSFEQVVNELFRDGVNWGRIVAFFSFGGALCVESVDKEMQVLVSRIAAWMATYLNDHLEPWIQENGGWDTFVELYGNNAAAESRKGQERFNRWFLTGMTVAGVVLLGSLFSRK

SMILES | Ki (Bcl-xL; [2]) | Ki (Bcl-xL; [3]) | EC50 [1]
CNCCOC12CC3(C)CC(C)(CC(Cn4ncc(-c5ccc(N6CCc7c(OCCCS(=O)(=O)O)ccc(C(=O)Nc8nc9ccccc9s8)c7C6)nc5C(=O)O)c4C)(C3)C1)C2 [Example 1.52, 6-[8-(1,3-benzothiazol-2-ylcarbamoyl)-5-(3-sulfopropoxy)-3,4-dihydroisoquinolin-2 (1H)-yl]-3-[1-({3,5-dimethyl-7-[2-(methylamino)ethoxy]tricyclo[3.3.1.1^3,7]dec-1-yl}methyl)-5-methyl-1H-pyrazol-4-yl]pyridine-2-carboxylic acid] | 0.0329 nM | < 0.001 nM | 973 nM
Cc1c(-c2ccc(-c3ccc4c(c3)N(C(=O)Nc3nc5ncccc5s3)CCC4)nc2C(=O)O)cnn1CC12CC3(C)CC(C)(C1)CC(OCCNCCS(=O)(=O)O)(C3)C2 [Example 1.53, 3-{1-[(3,5-dimethyl-7-{2-[(2-sulfoethyl)amino]ethoxy}tricyclo[3.3.1.1^3,7]dec-1-yl)methyl]-5-methyl-1H-pyrazol-4-yl}-6-[1-([1,3]thiazolo[4,5-b]pyridin-2-ylcarbamoyl)-1,2,3,4-tetrahydroquinolin-7-yl]pyridine-2-carboxylic acid] | 0.088 nM | < 0.001 nM | 462 nM
Cc1c(-c2ccc(-c3ccc4cccc(C(=O)Nc5nc6ncccc6s5)c4c3)nc2C(=O)O)cnn1CC12CC3(C)CC(C)(C1)CC(OCCNCCS(=O)(=O)O)(C3)C2 [Example 1.54, 3-{1-[(3,5-dimethyl-7-[2-[(2-sulfoethyl)amino]ethoxy}tricyclo[3.3.1.1^3,7]dec-1-yl)methyl]-5-methyl-1H-pyrazol-4-yl}-6-[8-([1,3]thiazolo[4,5-b]pyridin-2-ylcarbamoyl)naphthalen-2-yl]pyridine-2-carboxylic acid] | 0.11 nM | < 0.001 nM | > 10000 nM
Cc1c(-c2ccc(N3CCc4c(CC5O[C@H](CO)[C@@H](O)[C@H](O)[C@H]5O)ccc(C(=O)Nc5nc6ccccc6s5)c4C3)nc2C(=O)O)cnn1CC12CC3(C)CC(C)(C1)CC(OCCN)(C3)C2 (stereo partly drawn) [Example 1.55, (1ξ)-1-({2-[5-(1-{[3-(2-aminoethoxy)-5,7-dimethyltricyclo[3.3.1.1^3,7]dec-1-yl]methyl}-5-methyl-1H-pyrazol-4-yl)-6-carboxypyridin-2-yl]-8-(1,3-benzothiazol-2-ylcarbamoyl)-1,2,3,4-tetrahydroisoquinolin-5-yl}methyl)-1,5-anhydro-D-glucitol] | 0.039 nM | 0.039 nM | 73 nM
Cc1c(-c2ccc(N3CCc4cccc(C(=O)Nc5nc6ccccc6s5)c4C3)nc2C(=O)O)cnn1CC12CC3(C)CC(C)(C1)CC(OCCNCCCC(=O)O)(C3)C2 [Example 1.56, 6-[8-(1,3-benzothiazol-2-ylcarbamoyl)-3,4-dihydroisoquinolin-2 (1H)-yl]-3-{1-[(3-{2-[(3-carboxypropyl)amino]ethoxy}-5,7-dimethyltricyclo[3.3.1.1^3,7]dec-1-yl)methyl]-5-methyl-1H-pyrazol-4-yl}pyridine-2-carboxylic acid] | 0.123 nM | < 0.001 nM | 196 nM
Cc1c(-c2ccc(N3CCc4cccc(C(=O)Nc5nc6ccccc6s5)c4C3)nc2C(=O)O)cnn1CC12CC3(C)CC(C)(C1)CC(OCCN(CCS(=O)(=O)O)C1CNC1)(C3)C2 [Example 1.60, 3-{1-[(3-{2-[azetidin-3-yl(2-sulfoethyl)amino]ethoxy}-5,7-dimethyltricyclo[3.3.1.1^3,7]dec-1-yl)methyl]-5-methyl-1H-pyrazol-4-yl}-6-[8-(1,3-benzothiazol-2-ylcarbamoyl)-3,4-dihydroisoquinolin-2 (1H)-yl]pyridine-2-carboxylic acid] | 0.049 nM | < 0.001 nM | 425 nM
Cc1c(-c2ccc(N3CCc4cccc(C(=O)Nc5nc6ccccc6s5)c4C3)nc2C(=O)O)cnn1CC12CC3(C)CC(C)(C1)CC(OCCN(CCCN)CCS(=O)(=O)O)(C3)C2 [Example 1.61, 3-{1-[(3-{2-[(3-aminopropyl)(2-sulfoethyl)amino]ethoxy}-5,7-dimethyltricyclo[3.3.1.1^3,7]dec-1-yl)methyl]-5-methyl-1H-pyrazol-4-yl}-6-[8-(1,3-benzothiazol-2-ylcarbamoyl)-3,4-dihydroisoquinolin-2 (1H)-yl]pyridine-2-carboxylic acid] | 0.097 nM | < 0.001 nM | 255 nM
Cc1c(-c2ccc(-c3ccc4c(c3)N(C(=O)Nc3nc5ccccc5s3)CCC4)nc2C(=O)O)cnn1CC12CC3(C)CC(C)(C1)CC(OCCNCCC(=O)O)(C3)C2 [Example 1.62, 6-[1-(1,3-benzothiazol-2-ylcarbamoyl)-1,2,3,4-tetrahydroquinolin-7-yl]-3-{1-[(3-{2-[(2-carboxyethyl)amino]ethoxy}-5,7-dimethyltricyclo[3.3.1.1^3,7]dec-1-yl)methyl]-5-methyl-1H-pyrazol-4-yl)pyridine-2-carboxylic acid] | 0.2 nM | < 0.001 nM | 153 nM
Cc1c(-c2ccc(N3CCc4cccc(C(=O)Nc5nc6ccccc6s5)c4C3)nc2C(=O)O)cnn1CC12CC3(C)CC(C)(C1)CC(OCCN(C)C(=O)[C@@H](N)CCCCN(C)C)(C3)C2 [Example 1.63, 6-[8-(1,3-benzothiazol-2-ylcarbamoyl)-3,4-dihydroisoquinolin-2 (1H)-yl]-3-{1-[(3-{2-[(N′,N′-dimethyl-L-lysyl)(methyl)amino]ethoxy}-5,7-dimethyltricyclo[3.3.1.1^3,7]dec-1-yl)methyl]-5-methyl-1H-pyrazol-4-yl}pyridine-2-carboxylic acid] | < 0.01 nM | < 0.01 nM | 2.22 nM
Cc1c(-c2ccc(-c3ccc4c(c3)N(C(=O)Nc3nc5ccccc5s3)CCC4)nc2C(=O)O)cnn1CC12CC3(C)CC(C)(C1)CC(OCCN(C)CCCN)(C3)C2 [Example 1.64, 3-{1-[(3-{2-[(3-aminopropyl)(methyl)amino]ethoxy}-5,7-dimethyltricyclo[3.3.1.1^3,7]dec-1-yl)methyl]-5-methyl-1H-pyrazol-4-yl)-6-[1-(1,3-benzothiazol-2-ylcarbamoyl)-1,2,3,4-tetrahydroquinolin-7-yl]pyridine-2-carboxylic acid] | < 0.01 nM | < 0.01 nM | 5.25 nM
Cc1c(-c2ccc(-c3ccc4cccc(C(=O)Nc5nc6ccccc6s5)c4c3)nc2C(=O)O)cnn1CC12CC3(C)CC(C)(C1)CC(OCCNCCC(=O)O)(C3)C2 [Example 1.68, 6-[8-(1,3-benzothiazol-2-ylcarbamoyl)naphthalen-2-yl]-3-(1-[(3-{2-[(2-carboxyethyl)amino]ethoxy}-5,7-dimethyltricyclo[3.3.1.1^3,7]dec-1-yl)methyl]-5-methyl-1H-pyrazol-4-yl}pyridine-2-carboxylic acid] | 0.32 nM | < 0.01 nM | 346 nM
Cc1c(-c2ccc(-c3ccc4nccc(C(=O)Nc5nc6ccccc6s5)c4c3)nc2C(=O)O)cnn1CC12CC3(C)CC(C)(C1)CC(OCCNCCS(=O)(=O)O)(C3)C2 [Example 1.70, 6-[4-(1,3-benzothiazol-2-ylcarbamoyl)quinolin-6-yl]-3-{1-[(3,5-dimethyl-7-{2-[(2-sulfoethyl)amino]ethoxy}tricyclo[3.3.1.1^3,7]dec-1-yl)methyl]-5-methyl-1H-pyrazol-4-yl}pyridine-2-carboxylic acid] | 0.275 nM | < 0.01 nM | 193 nM
Cc1c(-c2ccc(-c3cnc4cccc(C(=O)Nc5nc6ccccc6s5)c4c3)nc2C(=O)O)cnn1CC12CC3(C)CC(C)(C1)CC(OCCNCCC(=O)O)(C3)C2 [Example 1.71, 6-[5-(1,3-benzothiazol-2-ylcarbamoyl)quinolin-3-yl]-3-{1-[(3-{2-[(2-carboxyethyl)amino]ethoxy}-5,7-dimethyltricyclo[3.3.1.1^3,7]dec-1-yl)methyl]-5-methyl-1H-pyrazol-4-yl}pyridine-2-carboxylic acid] | 0.061 nM | < 0.01 nM | 677 nM
Cc1c(-c2ccc(N3CCc4cccc(C(=O)Nc5nc6ccccc6s5)c4C3)nc2C(=O)O)cnn1CC12CC3(C)CC(C)(C1)CC(OCCNCCCc1cn([C@@H]4O[C@H](C(=O)O)[C@@H](O)[C@H](O)[C@H]4O)nn1)(C3)C2 [Example 1.73, 8-(1,3-benzothiazol-2-ylcarbamoyl)-2-{6-carboxy-5-[1-({3-[2-({3-[1-(beta-D-glucopyranuronosyl)-1H-1,2,3-triazol-4-yl]propyl}amino)ethoxy]-5,7-dimethyltricyclo[3.3.1.1^3,7]dec-1-yl}methyl)-S-methyl-1H-pyrazol-4-yl]pyridin-2-yl}-1,2,3,4-tetrahydroisoquinoline] | 34 nM | 0.88 nM | 3500 nM
